Measurements taken from BindingDB's records for doi:10.1021/bi00118a023 (University of Akron, 1992).

Target: T1, Bifunctional aspartokinase/homoserine dehydrogenase 1 (Escherichia coli (strain K12), UniProt P00561)
T1 sequence (P00561 whole entry): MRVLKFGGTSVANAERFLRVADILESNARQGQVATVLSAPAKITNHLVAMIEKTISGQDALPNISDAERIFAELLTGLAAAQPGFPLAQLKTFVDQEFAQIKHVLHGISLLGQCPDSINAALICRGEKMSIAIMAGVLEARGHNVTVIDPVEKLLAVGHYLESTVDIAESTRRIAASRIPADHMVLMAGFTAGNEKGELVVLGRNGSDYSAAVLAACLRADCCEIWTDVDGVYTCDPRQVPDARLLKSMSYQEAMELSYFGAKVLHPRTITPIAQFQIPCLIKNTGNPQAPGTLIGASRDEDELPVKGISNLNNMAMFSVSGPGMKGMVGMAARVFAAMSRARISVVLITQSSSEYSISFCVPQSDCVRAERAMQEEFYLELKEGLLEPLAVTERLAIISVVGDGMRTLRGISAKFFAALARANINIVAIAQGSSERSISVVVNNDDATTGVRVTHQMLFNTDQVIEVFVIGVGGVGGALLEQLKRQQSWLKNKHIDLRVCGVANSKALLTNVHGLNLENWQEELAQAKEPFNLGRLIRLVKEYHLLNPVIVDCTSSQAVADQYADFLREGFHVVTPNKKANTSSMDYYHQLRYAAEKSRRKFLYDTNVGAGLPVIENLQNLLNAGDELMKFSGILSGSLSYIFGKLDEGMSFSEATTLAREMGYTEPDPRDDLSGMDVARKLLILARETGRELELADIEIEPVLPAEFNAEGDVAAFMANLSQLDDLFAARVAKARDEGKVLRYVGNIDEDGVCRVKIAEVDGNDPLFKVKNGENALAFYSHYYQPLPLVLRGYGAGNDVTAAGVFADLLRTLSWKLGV
Experiment: Inhibition Assay
From the text: Analogues of L-aspartic acid and beta-aspartyl phosphate were examined as inhibitors in the aspartokinase I reaction by using the coupled reaction with ASA-DH.

SMILES | Ki
CCC[C@H](N)C(=O)O [L-Norvaline] | 3.1 mM
NC(CCP(=O)(O)O)C(=O)O (stereo not drawn) [DL-2-amino-4-phosphonobutyrate] | 61 mM
N[C@@H](CN(O)N=O)C(=O)O [L-Alanosine] | 7.5 mM
N[C@@H](CCOP(=O)(O)O)C(=O)O [Homoserine phosphate] | 6 mM
NCC[C@H](N)C(=O)O [2,4-Diaminobutanoate] | 10 mM
CCCC[C@H](N)C(=O)O [L-norleucine] | 24 mM
NC(=O)C[C@@H](N)C(=O)O [D-asparagine] | 39 mM
COC(=O)C[C@H](N)C(=O)OC [L-Aspartic dimethyl ester] | 71 mM
NC(CCCP(=O)(O)O)C(=O)O (stereo not drawn) [DL-2-Amino-5-phosphonovalerate] | 8.4 mM
N[C@@H](CC(=O)O)C(=O)OCc1ccccc1 [D-aspartate alpha-benzyl ester] | 11 mM
CCC(N)C(=O)O (stereo not given) [2-Aminobutyrate] | 5 mM
N[C@@H](COP(=O)(O)O)C(=O)O [O-phospho-L-serine] | 12 mM

Other lines, results leading:

Ki | SMILES
24 mM | COC(=O)CC[C@H](N)C(=O)O [L-glutamate gamma-methyl ester]
16 mM | N[C@@H](CC(=O)NO)C(=O)O [D-aspartate-beta-hydroxamate]
23 mM | NC(C(=O)O)C(=O)O [Aminomalonate]
30 mM | NCC(O)C(=O)O (racemic) [DL-Isoserine]
99 mM | C[C@H](N)C(=O)O [L-alanine]
32 mM | CC(C)[C@H](N)C(=O)O [L-Valine]
45 mM | NC(CC(=O)O)CC(=O)O [3-Aminoglutarate]
38 mM | N[C@@H](CCC(=O)O)C(=O)O [L-Glutamic acid]
